Test results published in patent publication US6548510B1, “Pharmaceutical composition containing deoxypeganine for the treatment of nicotine dependence” (priority 1999, dated 2003).

How the values were obtained:
smokers = assay: Influence of deoxypeganine on the smoking of healthy subjects; format: in vivo, human; settings: for Cigarette consumption after administration of 50 mg of deoxypeganine HCl/day: subject (smoker), 50 mg/day, administration period 24 hours
Method: Example: Influence of deoxypeganine on the smoking of healthy subjects
In the context of the testing of a deoxypeganine-containing formulation which releases about 50 mg of deoxypeganine hydrochloride per day in vivo, in addition to other subjects two smokers were also used as test subjects, as “smoking” was not an exclusion criterion in the testing. […] The administration period was 24 hours.

[1] = in contrast to neostigmine; cited from earlier work
acetylcholinesterase = acetylcholinesterase (Homo sapiens, UniProt P22303); settings: cited from earlier work
monoamine oxidase = settings: cited from earlier work

Chain of acetylcholinesterase (P22303 32-614, species assumed): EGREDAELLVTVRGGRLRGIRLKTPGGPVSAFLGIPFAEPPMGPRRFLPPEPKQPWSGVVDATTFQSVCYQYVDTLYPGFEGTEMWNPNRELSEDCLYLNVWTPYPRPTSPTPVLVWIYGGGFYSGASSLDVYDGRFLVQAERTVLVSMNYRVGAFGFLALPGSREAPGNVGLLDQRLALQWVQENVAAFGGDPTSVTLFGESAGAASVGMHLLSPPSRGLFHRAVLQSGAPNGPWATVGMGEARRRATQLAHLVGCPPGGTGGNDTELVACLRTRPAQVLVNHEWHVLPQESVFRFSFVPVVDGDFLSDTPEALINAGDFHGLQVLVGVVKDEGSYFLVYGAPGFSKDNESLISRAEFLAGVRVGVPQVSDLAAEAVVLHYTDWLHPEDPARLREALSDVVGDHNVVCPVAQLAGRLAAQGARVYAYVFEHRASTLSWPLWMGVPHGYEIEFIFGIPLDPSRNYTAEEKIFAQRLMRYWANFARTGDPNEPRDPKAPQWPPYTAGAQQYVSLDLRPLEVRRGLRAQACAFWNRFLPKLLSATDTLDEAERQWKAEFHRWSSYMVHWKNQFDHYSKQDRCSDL

In the case of `c1ccc2c(c1)CN1CCCC1=N2` [deoxypeganine], the “Reduction in cigarette consumption” value (smokers; single administration of 50 mg/day) is given as “considerable reduction”, the Blood-brain barrier crossing [1] is given as “crosses the blood-brain barrier” and the “Cholinesterase inhibitory action in comparison to physostigmine” value (acetylcholinesterase; based on the unit of weight) is given as “somewhat lower”. The Acetylcholinesterase inhibition (acetylcholinesterase; reversibly acting cholinesterase inhibitor) was “inhibits” and the Monoamine oxidase inhibition (monoamine oxidase) was “inhibits”.

For `Cl.c1ccc2c(c1)CN1CCCC1=N2` [deoxypeganine HCl, deoxypeganine hydrochloride], the “Cigarette consumption after administration of 50 mg of deoxypeganine HCl/day” value (smokers; without deoxypeganine 22 cigarettes/day (mean of n = 3)) was 3 cigarettes, the “Cigarette consumption after administration of 50 mg of deoxypeganine HCl/day” value (smokers; without deoxypeganine 41 cigarettes/day (mean of n = 5)) was 6 cigarettes and the Desire for cigarettes (smokers; two smokers, formulation releasing about 50 mg of deoxypeganine hydrochloride per day, 24 hours) was “obviously suppressed”.
